Assay results published in patent publication US20140249135A1, “PIM KINASE INHIBITORS AND METHODS OF THEIR USE” (NOVARTIS AG, priority 2007, published 2014).
“And” between values parts separate entries of the source, which are not always exact repeats. Equal entries are not always repeated. Where two headings read alike, the source gives them in different places.

Experiments:
KDR kinase = KDR kinase (Homo sapiens, UniProt P35968); assay: KDR AlphaScreen assay; conditions: KDR IC50 (μM)
Pim1 kinase = Pim1 kinase (Homo sapiens, UniProt P11309); assay: Pim1 ATP depletion assay; type: biochemical; conditions: Pim1 ATP depletion assay;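 further: Luciferase-luciferin luminescence readout of residual ATP after PIM1 transfers phosphate to a peptide substrate, 40 µM ATP added, reaction run to roughly half ATP consumption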
Sequence of Pim1 kinase (P11309 whole entry): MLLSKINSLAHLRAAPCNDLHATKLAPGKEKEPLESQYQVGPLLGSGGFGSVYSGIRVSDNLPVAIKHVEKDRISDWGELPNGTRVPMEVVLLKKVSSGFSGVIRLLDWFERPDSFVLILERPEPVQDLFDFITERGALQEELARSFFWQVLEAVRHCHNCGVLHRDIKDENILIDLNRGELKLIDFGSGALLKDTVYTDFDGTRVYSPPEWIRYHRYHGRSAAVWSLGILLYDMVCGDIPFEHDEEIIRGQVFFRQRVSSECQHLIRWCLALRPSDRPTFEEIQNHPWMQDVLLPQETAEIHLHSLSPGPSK

[1] = target: T1, human full length PKCE enzyme (Homo sapiens, UniProt Q02156); assay: In vitro PKCE assay; type: biochemical; conditions: 10 nM enzyme, 40 uM peptide substrate, 20 uM ATP, KinaseGlo Plus readout; read-out: PKCε IC50
T1 construct: human full length PKCE enzyme purchased from InVitrogen; purchased InVitrogen
T1 sequence (Q02156 1-737): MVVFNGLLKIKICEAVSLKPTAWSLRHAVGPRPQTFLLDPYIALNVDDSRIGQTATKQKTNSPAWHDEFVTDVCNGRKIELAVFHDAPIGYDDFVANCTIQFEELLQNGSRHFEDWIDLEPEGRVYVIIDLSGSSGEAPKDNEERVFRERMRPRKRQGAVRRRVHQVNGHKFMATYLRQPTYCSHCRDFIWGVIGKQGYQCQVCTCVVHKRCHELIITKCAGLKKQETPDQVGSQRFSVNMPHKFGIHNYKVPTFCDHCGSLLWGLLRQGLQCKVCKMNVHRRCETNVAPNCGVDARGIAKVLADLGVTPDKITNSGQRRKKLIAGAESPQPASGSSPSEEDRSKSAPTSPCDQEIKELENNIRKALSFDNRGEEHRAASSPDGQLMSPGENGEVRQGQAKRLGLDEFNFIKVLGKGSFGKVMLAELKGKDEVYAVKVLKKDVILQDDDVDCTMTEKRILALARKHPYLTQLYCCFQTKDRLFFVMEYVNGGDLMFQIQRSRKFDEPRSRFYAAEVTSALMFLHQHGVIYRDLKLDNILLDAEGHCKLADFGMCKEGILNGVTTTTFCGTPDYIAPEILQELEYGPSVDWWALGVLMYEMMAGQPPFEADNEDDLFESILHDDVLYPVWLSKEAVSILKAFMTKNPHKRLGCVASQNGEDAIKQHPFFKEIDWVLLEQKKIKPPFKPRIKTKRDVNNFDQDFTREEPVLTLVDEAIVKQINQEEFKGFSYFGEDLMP

Pim2 kinase = Pim2 kinase (Homo sapiens, UniProt Q9P1W9); assay: Pim2 ATP depletion assay; type: biochemical;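 further: Luciferase-based luminescent readout of ATP remaining after PIM2 phosphorylates a BAD peptide, final 5 nM enzyme, 4 µM ATP, 10 µM peptide, 2.5% DMSO, run to roughly half ATP consumption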
Sequence of Pim2 kinase (Q9P1W9 whole entry): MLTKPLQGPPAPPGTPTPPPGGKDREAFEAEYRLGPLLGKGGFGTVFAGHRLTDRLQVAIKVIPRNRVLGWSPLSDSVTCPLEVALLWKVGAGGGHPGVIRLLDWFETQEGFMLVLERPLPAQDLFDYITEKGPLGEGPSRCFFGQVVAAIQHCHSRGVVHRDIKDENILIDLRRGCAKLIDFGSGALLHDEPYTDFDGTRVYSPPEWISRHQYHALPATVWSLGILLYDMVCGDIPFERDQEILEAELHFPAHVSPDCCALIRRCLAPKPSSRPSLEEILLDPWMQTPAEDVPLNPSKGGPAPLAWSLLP

Pim3 kinase = Pim3 kinase (Homo sapiens, UniProt Q86V86); assay: Pim3 ATP depletion assay; type: biochemical

Sequence of KDR kinase (P35968 20-1356): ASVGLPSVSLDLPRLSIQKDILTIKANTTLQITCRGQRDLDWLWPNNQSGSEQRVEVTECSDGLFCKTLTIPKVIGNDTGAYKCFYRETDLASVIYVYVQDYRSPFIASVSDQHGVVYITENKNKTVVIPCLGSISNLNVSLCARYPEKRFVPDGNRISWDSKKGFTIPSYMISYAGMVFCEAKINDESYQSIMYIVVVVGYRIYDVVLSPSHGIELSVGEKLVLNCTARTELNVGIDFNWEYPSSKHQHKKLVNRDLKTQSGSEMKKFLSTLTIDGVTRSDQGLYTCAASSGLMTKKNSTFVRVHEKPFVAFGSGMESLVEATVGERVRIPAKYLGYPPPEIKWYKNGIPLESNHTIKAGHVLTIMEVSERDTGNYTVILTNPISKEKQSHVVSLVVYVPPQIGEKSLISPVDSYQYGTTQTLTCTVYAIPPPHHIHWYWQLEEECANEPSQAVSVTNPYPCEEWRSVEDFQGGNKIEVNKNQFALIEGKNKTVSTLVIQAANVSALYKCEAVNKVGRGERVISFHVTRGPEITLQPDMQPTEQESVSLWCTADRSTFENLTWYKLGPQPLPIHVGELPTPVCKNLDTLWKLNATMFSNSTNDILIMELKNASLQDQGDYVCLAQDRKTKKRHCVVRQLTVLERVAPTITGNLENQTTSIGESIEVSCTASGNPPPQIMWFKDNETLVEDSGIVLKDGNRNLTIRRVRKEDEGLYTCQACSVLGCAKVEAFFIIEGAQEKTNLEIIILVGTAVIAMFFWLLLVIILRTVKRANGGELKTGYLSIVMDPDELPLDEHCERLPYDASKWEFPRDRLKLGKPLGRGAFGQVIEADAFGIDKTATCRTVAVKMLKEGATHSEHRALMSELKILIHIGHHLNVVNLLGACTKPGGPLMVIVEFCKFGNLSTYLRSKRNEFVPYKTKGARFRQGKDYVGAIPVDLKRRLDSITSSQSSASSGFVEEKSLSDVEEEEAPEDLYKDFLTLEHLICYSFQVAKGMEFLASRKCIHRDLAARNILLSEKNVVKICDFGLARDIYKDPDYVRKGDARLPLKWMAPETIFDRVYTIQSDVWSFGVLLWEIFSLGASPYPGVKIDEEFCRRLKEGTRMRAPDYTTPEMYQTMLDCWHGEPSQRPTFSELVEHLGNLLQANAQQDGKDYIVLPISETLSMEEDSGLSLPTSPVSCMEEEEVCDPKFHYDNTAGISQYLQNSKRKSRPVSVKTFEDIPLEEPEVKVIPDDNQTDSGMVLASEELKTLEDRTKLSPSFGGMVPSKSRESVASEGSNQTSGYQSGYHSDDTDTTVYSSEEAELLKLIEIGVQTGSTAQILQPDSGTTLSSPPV

Structure (SMILES)	IC50 (KDR kinase) [µM]	IC50 (Pim1 kinase; read-out: IC50 (μM) PIM1) [µM]	IC50 [1] [µM]	IC50 (Pim2 kinase; read-out: IC50 (μM) PIM2) [µM]	IC50 (Pim3 kinase; read-out: IC50 (μM) PIM3)	IC50 (Pim1 kinase; read-out: PIM1 IC50) [µM]	IC50 (Pim2 kinase; read-out: PIM2 IC50) [µM]	IC50 (Pim3 kinase; read-out: PIM3 IC50) [µM]
Nc1ncc(-c2ccccc2F)nc1C(=O)Nc1cc(C(=O)c2ccccc2)ccc1N1CCNCC1 [Example 438, 3-amino-6-(2-fluoro-phenyl)-pyrazine-2-carboxylic acid (5-benzoyl-2-piperazin-1-yl-phenyl)-amide]	1 to 10	1 to 10	> 25	> 25	1 to 10 µM			
Cc1ccc(N2CCCC(N)C2)c(NC(=O)c2nccnc2N)c1 (stereo not shown) [Example 218, 3-amino-N-[2-(3-aminopiperidin-1-yl)-5-methylphenyl]pyrazine-2-carboxamide]	> 25	< 1	1 to 10	10 to 25	< 1 µM			
Cc1cccc(-c2cnc(N)c(C(=O)Nc3ccccc3N3CCNCC3)n2)c1 [Example 388, 3-amino-6-m-tolyl-pyrazine-2-carboxylic acid (2-piper-azin-1-yl-phenyl)-amide]	< 1	< 1	< 1	1 to 10	< 1 µM			
Nc1ccc(-c2cccnc2F)nc1C(=O)Nc1ccncc1N1CCCC(N)C1 (stereo not shown) [Example 552, 5-Amino-2′-fluoro-[2,3′]bi-pyridinyl-6-carboxylic acid (3-amino-3,4,5,6-tetrahydro-2H-[1,3′]bipyridinyl-4′-yl)-amide]	1 to 10		1 to 10			< 1	< 1	< 1
COc1cncc(-c2cnc(N)c(C(=O)Nc3cnccc3N3CCNCC3)n2)n1 [Example 360, 5-amino-6′-methoxy-[2,2′]bipyrazinyl-6-carboxylic acid (4-piperazin-1-yl-pyridin-3-yl)-amide]	< 1	1 to 10	1 to 10	> 25	1 to 10 µM			
Nc1ncc(Br)nc1C(=O)Nc1cnccc1N1CCCCC1 [Example 119, 3-amino-6-bromo-N-(4-piperidin-1-ylpyridin-3-yl)pyrazine-2-carboxamide]	1 to 10	< 1	< 1	< 1	< 1 µM			
COc1ccc(N2CCC(N)CC2)c(NC(=O)c2nc(Br)cnc2N)c1 [Example 211, 3-amino-N-[2-(4-aminopiperidin-1-yl)-5-methoxyphenyl]-6-bromopyrazine-2-carboxamide]	1 to 10	< 1	< 1	< 1	< 1 µM			
Nc1ccc(-c2cnc(N)c(C(F)(F)F)c2)nc1C(=O)Nc1cnccc1N1CCC[C@H](N)C1 [Example 482, 5,6′-Diamino-5′-trifluoromethyl-[2,3′]bipyridinyl-6-carboxylic acid (3-amino-3,4,5,6-tetrahydro-2H-[1,4′]bipyridinyl-3′-yl)-amide]	10 to 25	< 1	> 25	< 1	< 1 µM			
Nc1ccc(-c2ccc(N)c(C(=O)Nc3cnccc3N3CCC[C@H](N)C3)n2)c(F)n1 [Example 484, 5,6′-Diamino-2′-fluoro-[2,3′]bi-pyridinyl-6-carboxylic acid (3-amino-3,4,5,6-tetrahydro-2H-[1,4′]bipyridinyl-3′-yl)-amide]	> 25	< 1	10 to 25	< 1	< 1 µM			
Nc1nccnc1C(=O)Nc1cc(C(=O)c2ccccc2)ccc1N1CCNCC1 [Example 232, 3-amino-pyrazine-2-carboxylic acid (5-benzoyl-2-piperazin-1-yl-phenyl)-amide]	10 to 25	10 to 25	10 to 25	> 25	10 to 25 µM			
COc1nc(N)ncc1-c1ccc(N)c(C(=O)Nc2cnccc2N2CCC[C@H](N)C2)n1 [Example 485, 3-Amino-6-(2-amino-4-methoxy-pyrimidin-5-yl)-pyridine-2-carboxylic acid (3-amino-3,4,5,6-tetrahydro-2H-[1,4′]bipyridinyl-3′-yl)-amide]	10 to 25	< 1	> 25	< 1	< 1 µM			
COc1ccc(N2CCCC(N)C2)c(NC(=O)c2nc(Br)cnc2N)c1 (stereo not shown) [Example 212, 3-amino-N-[2-(3-aminopiperidin-1-yl)-5-methoxyphenyl]-6-bromopyrazine-2-carboxamide]	10 to 25	< 1	< 1	< 1	< 1 µM			
Nc1nccnc1C(=O)Nc1cc(C(F)(F)F)ccc1N1CCC(N)CC1 [Example 225, 3-amino-N-[2-(4-aminopiperidin-1-yl)-5-(trifluoromethyl)phenyl]-pyrazine-2-carboxamide]	> 25	< 1	1 to 10	10 to 25	< 1 µM			
Nc1nccnc1C(=O)Nc1cnccc1N1CCCNCC1 [Example 199, 3-amino-N-[4-(1,4-diazepan-1-yl)pyridin-3-yl]pyrazine-2-carboxamide]	1 to 10	1 to 10	1 to 10	> 25	> 25 µM and 10 to 25 µM			
NCC1CCCN(c2cnc(=O)[nH]c2NC(=O)c2nccnc2N)C1 (stereo not shown) [Example 135, 3-amino-N-{5-[3-(amino-methyl)piperidin-1-yl]-2-oxo-2,3-dihydropyrimidin-4-yl}-pyrazine-2-carboxamide]	1 to 10	< 1	< 1	< 1	< 1 µM			
Nc1nccnc1C(=O)Nc1cc(C(F)(F)F)ccc1N1CCCC(N)C1 (stereo not shown) [Example 226, 3-amino-N-[2-(3-aminopiperidin-1-yl)-5-(trifluoromethyl)phenyl]-pyrazine-2-carboxamide]	> 25	< 1	1 to 10	1 to 10	< 1 µM			
Nc1nccnc1C(=O)Nc1cc(C(=O)c2ccccc2)ccc1N1CCCC(N)C1 (stereo not shown) [Example 231, 3-amino-pyrazine-2-carboxylic acid [2-(3-amino-piperidin-1-yl)-5-benzoyl-phenyl]-amide]	10 to 25	1 to 10	10 to 25	> 25	1 to 10 µM			
NCC1CCCN(c2cnc(=O)[nH]c2NC(=O)c2nc(Cl)c(N)nc2N)C1 (stereo not shown) [Example 236, 3,5-diamino-N-{5-[3-(amino-methyl)piperidin-1-yl]-2-oxo-2,3-dihydropyrimidin-4-yl}-6-chloropyrazine-2-carboxamide]	10 to 25	< 1	> 25	< 1	< 1 µM			
CN1CCC(NC2CCCN(c3ccncc3NC(=O)c3nc(Br)cnc3N)C2)CC1 (stereo not shown) [Example 597, 3-amino-6-bromo-N-(4-(3-(1-methylpiperidin-4-ylamino)piperidin-1-yl)pyridin-3-yl)pyrazine-2-carboxamide]	> 25		1 to 10			< 1	1 to 10	< 1
COc1cncc(-c2cnc(N)c(C(=O)Nc3cnccc3N3CCC(N)CC3)n2)n1 [Example 366, 5-amino-6′-methoxy-[2,2′]bi-pyrazinyl-6-carboxylic acid (4-amino-3,4,5,6-tetrahydro-2H-[1,4′]bipyridinyl-3′-yl)-amide]	< 1	< 1	< 1	1 to 10	< 1 µM			
COc1ccc(N2CCCC(N)C2)c(NC(=O)c2nccnc2N)c1 (stereo not shown) [Example 223, 3-amino-N-[2-(3-aminopiperidin-1-yl)-5-methoxyphenyl]pyrazine-2-carboxamide]	> 25	< 1	< 1	1 to 10	< 1 µM			
Nc1ncc(-c2ccccc2F)nc1C(=O)Nc1ccccc1N1CCC(N)CC1 [Example 377, 3-amino-6-(2-fluoro-phenyl)-pyrazine-2-carboxylic acid [2-(4-amino-piperidin-1-yl)-phenyl]-amide]	1 to 10	< 1	< 1	< 1	< 1 µM			
Nc1cc(C(F)(F)F)c(-c2ccc(N)c(C(=O)Nc3cnccc3N3CCC[C@H](N)C3)n2)cn1 [Example 483, 5,6′-Diamino-4′-trifluoromethyl-[2,3′]bipyridinyl-6-carboxylic acid (3-amino-3,4,5,6-tetrahydro-2H-[1,4′]bipyridinyl-3′-yl)-amide]	> 25	< 1	10 to 25	< 1	< 1 µM			
